Results: patent US5747463A, “Malonate derivatives of glycolipids as cell adhesion inhibitors” (Bristol-Myers Squibb Company, priority 1996, dated 1998)

Legend:
[1] = system: platelet: HL-60 cell adhesion; experiment: HL-60 Platelet Cell Adhesion Assay; format: cell-based; settings: 0.5 h; thrombin-activated human platelets: HL-60 5:1, 30 minutes at room temperature; read-out: P-selectin HL-60 Platelets IC50
Description: HL-60 cells, obtained from American Type Culture Collection, were cultured in RPMI 1640 medium (GIBCO) supplemented with 20% fetal calf serum (Sigma) and 50 μg/ml gentamicin (GIBCO). Cells in log phase growth were harvested, washed and resuspended in Tyrodes buffer containing 5 mM HEPES and 0.2% bovine serum albumin and were fixed with 1% buffered formalin.
Blood from normal human donors was anticoagulated with citrate, layered over 1-Step Platelets (Accurate Chemical Co.) and centrifuged at 350 g for 20 minutes at room temperature. The platelet band was collected, diluted in 2 volumes of Tyrode's Buffer with 5 mM HEPES, 10 mM EDTA, and 0.2% BSA (pH 7.4) (THEB) and centrifuged at 600 g for 10 minutes. The platelet pellet was resuspended in THEB and incubated at room temperature for 1 hour. Calcein-acetoxy methylester (Calcein-Am, Molecular Probes) was added to the platelets at a final concentration of 10 μM and incubated for 10 minutes at 37° C. to label the platelets. Without washing, the platelets were counted on a Coulter counter model ZM, and the concentration was adjusted to 1×10^7 /ml. The platelets were activated with 2 U/ml of human thrombin for 10 minutes in Tyrode's containing 2 mM CaCl2, 5 mM HEPES, and 0.2% BSA (pH 7.4) (THB) at 37° C. and immediately fixed with 1% buffered formalin for 1 to 2 hours at room temperature. A small aliquot of labeled platelets was removed before activation and designated as non-activated.
Both platelets and HL-60 were washed in a ≥25 fold excess volume of Hanks Balanced Salt Solution (HBSS), resuspended in THB and counted. Cell concentrations were adjusted to 2×10^7 /ml for platelets and 4×10^6 /ml for HL-60, this ratio determined to be optimum for platelet: HL-60 cell adhesion. Compounds were incubated with 50 μl of platelets for 30 minutes at room temperature before addition of 50 μl of HL-60. This ratio of 5:1 platelets to HL-60 was incubated for 30 minutes at room temperature before addition of 0.2 ml of THB to increase the volume so the samples could be analyzed on a FACScan cytometer (Becton Dickinson). Non-activated platelets, and activated platelets with 10 mM EDTA were included as controls. Data were collected within a region set for the forward scatter channel corresponding to HL-60 size events.
The percent HL-60 cells which contained bound platelets was determined for each test condition. The inhibition of binding was determined by comparison to standards which were treated with vehicle alone (representing 0% inhibition) and standards whose specific binding had been blocked by the use of EDTA (representing 100% inhibition), by the following formula: [formula] where x=HL-60 cells containing bound platelets in the presence of the compound;
b=HL-60 cells containing bound platelets in the presence of EDTA;
a=HL-60 cells containing bound platelets in the presence of compound vehicle;
z=% inhibition of platelet: HL-60 cell adhesion

rats = experiment: Reverse Passive Arthus Reaction in Rats (RPA); format: in vivo, male Sprague Dawley rats; parameters: key to RPA VP % Inhib. (vascular permeability): NS: no significant inhibition at 3 mg; settings: single dose of 3 mg IV, rat, 4 hours after BSA
Excerpt: The reverse passive Arthus reaction in rats is a modification of the method by Mulligan et al., as described in J. Clin. Invest, (1991) 88: 1396-1406. This is an experimental model in which the interaction of antigen-antibodycomplexes and complement leads to a severe vasculitis that is associated with edema, induration, erythema and hemorrhage. The interaction between the antigen-antibody complexes and complement leads to a localized influx of neutrophils. These neutrophils release a variety of mediators that are associated with tissue damage and vascular permeability. The localized inflammatory reaction is measured using different techniques i.e., vascular permeability and neutrophil influx which is evaluated both biochemically and microscopically.
Male Sprague Dawley specific pathogen-free rats with jugular vein cannulae (280-320 g, Hill Top Labs, Pennsylvania) are used in these studies. Animals are acclimated for at least 1 day and individually housed in stainless steel cages. The dorsal region of the rats is closely clipped 2 days prior to the experiments and divided into 4 sites on each side of the midline. Prior to all injections the rats are sedated with 0.4 ml per 300 gm rat of ketamine/rompun [1000 mg (10 ml) of ketamine HCl is mixed with 40 mg (2.0 ml) Rompun] administered IP and or inhalation anesthesia with metafane (methoxyflurane).
Bovin Serum Albumin (BSA) and rabbit polyclonal IgG rich in anti-BSA are purchased from Sigma Chemical Co. (St. Louis, Mo.). Radiolabelled ^125 I-BSA (spAct 1-5 μCi/μg) is purchased from Dupont NEN (Boston, Mass.).
Each rat is administered intradermal (ID) injection of (0.4 mg, 0.6 mg and 0.8 mg) anti-BSA in a volume of 100 μl per injection in normal saline. The ID injections are randomized near the mid dorsal region on both sides of the back bone. Immediately after the ID injections of the anti-BSA, the rats are administered intravenous (IV) injections of BSA (10 mg in 1.0 ml) in normal saline containing ^125 I labeled BSA (1 μCi/ml BSA or 5.0 μCi/kg body/wt) for quantification of dermal valscular injury. Anti-inflammatory agents such as inhibitors of adhesion molecules of the present invention are administered IV at a single dose of 3 mg immediately after BSA. Four (4) hours after the IV injection of BSA, the rats are anesthetized with metafane and 2 to 3 ml of blood is withdrawn via the cannula into an anticoagulant containing (EDTA or Heparin) tube and plasma separated and saved for neutrophil and albumin quantitation. The rats are killed and the skin surrounding the injection site (15 mm diameter) is punched out and weighed. The skin sample and a fixed volume of plasma (0.1 to 1.0 ml) is analyzed in a gamma-counter for ^125 I content. Skin samples from the contralateral side are processed and analyzed for myeloperoxidase activity (MPO) as a measure of neutrophil accumulation. As needed, samples are also processed for histological evaluation of the reacted sites.
The calculation of the plasma protein exudation into skin is made by determining the radioactivity in the tissue and relating this to the level of radioactive albumin in the blood at the time of sacrifice. […] [formula]
Percent inhibition of the test compound at 3 mg was determined as follows: [formula] Myeloperoxidase (MPO)
MPO is located in the azurophil granules of polymorphonuclear leukocytes (PMN). Because of its abundance in these cells (5% dry weight), this enzyme is used as a marker for tissue neutrophil content. For tissue MPO content, the method of Bradley, et al., was used as described in J. Invest. Dermatol. (1982) 78: 206-209. Biopsies from each treatment group were placed in plastic tubes (15×100 mm) containing 10 ml of 0.5% hexadecyltrimethylammonium bromide (HTAB) in 0.05M potassium phosphate buffer pH 6.0. The tissue was then homogenized with a Brinkmann Polytron homogenizer (10s). […]

P-selectin = target: T1, P-selectin (Homo sapiens, UniProt P16109); settings: literature; cited from earlier work
T1 sequence (P16109 42-830): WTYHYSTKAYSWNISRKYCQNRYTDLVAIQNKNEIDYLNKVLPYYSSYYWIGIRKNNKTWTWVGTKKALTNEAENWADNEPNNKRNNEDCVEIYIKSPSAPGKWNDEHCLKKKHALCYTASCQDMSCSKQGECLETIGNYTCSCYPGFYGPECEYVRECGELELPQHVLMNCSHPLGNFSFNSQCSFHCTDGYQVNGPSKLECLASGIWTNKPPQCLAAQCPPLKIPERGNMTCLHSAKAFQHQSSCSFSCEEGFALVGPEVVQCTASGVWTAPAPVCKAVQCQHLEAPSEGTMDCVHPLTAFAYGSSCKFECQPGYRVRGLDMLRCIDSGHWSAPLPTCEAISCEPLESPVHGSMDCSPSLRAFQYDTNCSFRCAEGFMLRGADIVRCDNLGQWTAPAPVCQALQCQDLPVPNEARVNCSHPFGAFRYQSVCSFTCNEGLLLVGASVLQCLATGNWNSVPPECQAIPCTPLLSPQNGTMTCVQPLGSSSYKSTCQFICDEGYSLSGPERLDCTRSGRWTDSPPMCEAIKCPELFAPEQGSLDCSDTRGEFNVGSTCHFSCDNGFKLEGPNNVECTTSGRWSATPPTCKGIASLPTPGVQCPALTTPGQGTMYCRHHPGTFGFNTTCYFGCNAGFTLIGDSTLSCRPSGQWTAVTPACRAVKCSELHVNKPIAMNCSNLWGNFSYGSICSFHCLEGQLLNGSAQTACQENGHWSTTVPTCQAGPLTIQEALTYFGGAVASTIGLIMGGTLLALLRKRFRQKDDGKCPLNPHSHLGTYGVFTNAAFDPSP

Compound | IC50 [1] | RPA MPO % Inhib. (myeloperoxidase) (rats) | RPA VP % Inhib. (vascular permeability) (rats; printed as symbol) | RPA VP % Inhib. (vascular permeability) (rats) | inhibition of P-selectin mediated adhesion (P-selectin)
CCCCCCCCCCCCC/C=C/[C@@H](OC(=O)c1ccccc1)[C@H](CO[C@H]1O[C@H](COCCC(C(=O)O)C(=O)O)[C@H](O)[C@H](O)[C@H]1O)NC(=O)CCCCCCCCCCCCCCC [Example 6, (2S,3R,4E)-3-Benzoyloxy-2-hexadecanoylamino-1-[6-O-(3,3-di-carboxyprop-1-yl)-α-D-galactopyranosyloxy]-4-octadecene] | 13 µM | 25% | NS |  | 
CCCCCCCCCCCCC/C=C/[C@@H](OC(=O)c1ccccc1)[C@H](CO[C@H]1O[C@H](CO)[C@H](O)[C@H](OCCCCC(C(=O)O)C(=O)O)[C@H]1O)NC(=O)CCCCCCCCCCCCCCC [Example 12, (2S,3R,4E)-3-Benzoyloxy-2-hexadecanoylamino-1-[3-O-(5,5-di-carboxypent-1-yl)-α-D-galactopyranosyloxy]-4-octadecene] | 22.9 µM | 82% |  | 33% | 
CCCCCCCCCCCCC/C=C/[C@@H](OC(=O)c1ccccc1)[C@H](CO[C@@H]1O[C@H](CO)[C@H](O)[C@H](OCCCCC(C(=O)O)C(=O)O)[C@H]1O)NC(=O)CCCCCCCCCCCCCCC [Example 14, (2S,3R,4E)-3-Benzoyloxy-2-hexadecanoylamino-1-[3-O-(5,5-di-carboxypent-1-yl)-β-D-galactopyranosyloxy]-4-octadecene] | 45 µM | 30.9% |  | 15.5% | 
CCCCCCCCCCCCC/C=C/[C@@H](OC(=O)c1ccccc1)[C@H](CO[C@@H]1O[C@H](CO)[C@H](O)[C@H](OC(=O)c2ccccc2)[C@H]1OCCCCC(C(=O)O)C(=O)O)NC(=O)CCCCCCCCCCCCCCC [Example 18, (2S,3R,4E)-3-Benzoyloxy-2-hexadecanoylamino-1-[2-O-(5,5-di-carboxypent-1-yl)-3-O-benzoyl-β-D-galactopyranosyloxy]-4-octadecene] | 8.8 µM | 61.6% |  | 4.3% | 
CCCCCCCCCCCCC/C=C/[C@@H](OC(=O)c1ccccc1)[C@H](CO[C@H]1O[C@H](CO)[C@H](OCCC(C(=O)O)C(=O)O)[C@H](O)[C@H]1O)NC(=O)CCCCCCCCCCCCCCC [Example 24, (2S,3R,4E)-3-Benzoyloxy-2-hexadecanoylamino-1-[4-O-(3,3-di-carboxyprop-1-yl)-α-D-galactopyranosyloxy]-4-octadecene] | 51 µM | 35% |  | 33.5% | 
dextran sulfate |  |  |  |  | inhibit P-selectin mediated adhesion
fucoidan |  |  |  |  | inhibit P-selectin mediated adhesion
heparin |  |  |  |  | inhibit P-selectin mediated adhesion
